Measured values reported in ChEMBL document CHEMBL5370692, “Synthesis and Evaluation of Small Molecule Inhibitors of the Androgen Receptor N-Terminal Domain” (ACS Med Chem Lett, 2023).

Molecular target: T1, Androgen receptor (Homo sapiens, UniProt P10275)
T1 sequence (P10275 whole entry): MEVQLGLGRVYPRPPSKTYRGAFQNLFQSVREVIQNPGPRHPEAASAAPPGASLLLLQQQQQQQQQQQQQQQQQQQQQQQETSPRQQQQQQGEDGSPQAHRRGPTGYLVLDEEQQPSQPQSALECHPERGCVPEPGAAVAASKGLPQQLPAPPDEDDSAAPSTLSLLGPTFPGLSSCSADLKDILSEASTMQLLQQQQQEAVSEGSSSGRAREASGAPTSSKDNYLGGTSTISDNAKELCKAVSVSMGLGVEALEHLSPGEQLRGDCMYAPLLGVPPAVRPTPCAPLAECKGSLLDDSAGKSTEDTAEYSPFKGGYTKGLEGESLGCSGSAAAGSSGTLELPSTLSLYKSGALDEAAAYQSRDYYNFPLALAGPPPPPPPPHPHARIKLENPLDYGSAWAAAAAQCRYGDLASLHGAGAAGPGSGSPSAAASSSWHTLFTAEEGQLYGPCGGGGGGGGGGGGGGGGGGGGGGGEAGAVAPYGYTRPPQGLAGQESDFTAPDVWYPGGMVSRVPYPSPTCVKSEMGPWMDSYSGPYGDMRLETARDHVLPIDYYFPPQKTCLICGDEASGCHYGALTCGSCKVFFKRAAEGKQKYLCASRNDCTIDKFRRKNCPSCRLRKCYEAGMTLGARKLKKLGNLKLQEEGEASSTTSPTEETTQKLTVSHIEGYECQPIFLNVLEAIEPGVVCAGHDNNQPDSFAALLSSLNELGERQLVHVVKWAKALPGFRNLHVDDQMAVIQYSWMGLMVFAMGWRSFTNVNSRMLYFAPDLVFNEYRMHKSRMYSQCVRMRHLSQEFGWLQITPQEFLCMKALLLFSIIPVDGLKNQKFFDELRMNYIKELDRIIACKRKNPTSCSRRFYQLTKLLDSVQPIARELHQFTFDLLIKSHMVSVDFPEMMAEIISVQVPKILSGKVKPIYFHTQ
Assay: Inhibition of androgen receptor in human VCaP cells expressing GRE-2-TATA-Luc co-expressing firefly luciferase incubated for 24 hrs in presence of DHT by luciferase reporter gene assay
Type: cell-based

CSc1ccc(C(N)=O)cc1-c1ccc2cnccc2c1
IC50: 800 nM
